Structures are written as SMILES.

Among the data in patent publication US10138255B2, “Piperazine derivatives as HIV protease inhibitors” (Merck Sharp & Dohme Corp., priority 2014, dated 2018) are EC50 values, retold here.

The test system of one assay is HIV-1 (H9IIIB strain). Description: Cell-Based HIV Infection Assay Using a Reporter (MT4-GFP cells). The following applies: Human immunodeficiency virus 1, inflection point (IP) of viral growth inhibition; MT4-GFP cells infected with HIV-1 H9IIIB; 50% normal human serum; mean of at least two independent experiments; read-out: Cell Based IP (50% NHS). On the procedure: Cell-Based HIV Infection Assay Using a Reporter (“Cell-Based”):
MT4-GFP cells contain a stably integrated HIV long terminal repeat promoter directing the transcription of green fluorescent protein (GFP). When HIV infects the cell, GFP is produced and the cell becomes green. MT4-GFP cells (250,000 cells/mL) were bulk-infected with HIV-1 (H9IIIB strain) at low multiplicity of infection (MOI) in RPM 1640 media, supplemented with 10% FBS for 24 h. Cells were then washed once in RPMI 1640 plus 10% FBS and resuspended in RPMI plus 50% normal human serum (NHS). Test compounds were serial-diluted in DMSO using an ECHO liquid dispenser. A control well included a combination of three HIV drugs (an inhibitor of HIV protease, integrase strand transfer and a non-nucleoside reverse transcriptase inhibitor; triple drug). The infected MT4-GFP cells were added to a 384-well poly-D-lysine coated black plate with clear bottom in which the diluted test compounds were placed. The cells were seeded in the plate at 8,000 cells per well and the final DMSO concentration was 0.4%. Infected cells were quantified at both 24 and 48 h post incubation using an Acumen eX3 plate reader. Viral reproductive ratio (R0) was determined using the number of infected cells at 48 h divided by the number of infected cells at 24 h. Percent viral growth inhibition was calculated by [1−(R−Rtripledrug)/(RDMSO−Rtripledrug)]*100. Compound potency inflection point (IP) was determined with use of a 4-parameter dose response curve analysis.
Data shown in the table reflects the mean of at least two independent experiments.
As for `COC(=O)N[C@H](C(=O)Nc1cccc(F)c1CCC1CNC2CCCS(=O)(=O)N1C2)C(c1ccc(OC)nc1)c1ccc(F)c(F)c1` (stereo in doubt) [Example 68, methyl [(1S,2R)-2-(3,4-difluorophenyl)-1-({2-[2-(2,2-dioxido-2-thia-1,7-diazabicyclo[4.3.1]dec-9-yl)ethyl]-3-fluorophenyl}carbamoyl)-2-(6-methoxypyridin-3-yl)ethyl]carbamate], the EC50 is 12 nM.
Same read-out and setting: the value for `COC(=O)N[C@H](C(=O)Nc1cccc(F)c1CCC1CNC2CCCS(=O)(=O)N1C2)C(c1ccc(Cl)cc1)c1ccc(OC(C)C)nc1` (stereo in doubt) [Example 94, methyl {(1S,2R)-2-(4-chlorophenyl)-1-({2-[2-(2,2-dioxido-2-thia-1,7-diazabicyclo[4.3.1]dec-9-yl)ethyl]-3-fluorophenyl}carbamoyl)-2-[6-(1-methylethoxy)pyridin-3-yl]ethyl}carbamate] was 6.4 nM; that for `N[C@H](C(=O)Nc1cccc(F)c1CCC1CNC2CCCS(=O)(=O)N1C2)C(c1ccc(Cl)cc1)c1ccnc(C(F)(F)F)c1` (stereo in doubt) [Example 123, (βR)-4-chloro-N-{2-[2-(2,2-dioxido-2-thia-1,7-diazabicyclo[4.3.1]dec-9-yl)ethyl]-3-fluorophenyl}-β-[2-(trifluoromethyl)pyridin-4-yl]-L-phenylalaninamide] was 6.8 nM.
As for `CC(C)Oc1ccc(C(c2ccc(Cl)cc2)[C@H](N)C(=O)Nc2cncc(F)c2CC[C@H]2CN[C@@H]3CCCS(=O)(=O)N2C3)cn1` (stereo in doubt) [Example 240, (2S,3R)-2-amino-3-(4-chlorophenyl)-N-(4-(2-((6R,9S)-2,2-dioxido-2-thia-1,7-diazabicyclo[4.3.1]decan-9-yl)ethyl)-5-fluoropyridin-3-yl)-3-(6-isopropoxypyridin-3-yl)propanamide], the EC50 is 8.4 nM.
Take `N[C@H](C(=O)Nc1cccc(F)c1CCC1CNC2CCCS(=O)(=O)N1C2)[C@@H](c1ccc(F)cc1)c1cc(F)cc(F)c1` (stereo partly drawn) [Example 1, (βS)—N-{2-[2-(2,2-Dioxido-2-thia-1,7-diazabicyclo[4.3.1]dec-9-yl)ethyl]-3-fluorophenyl}-3,5-difluoro-β-(4-fluorophenyl)-L-phenylalaninamide]: the EC50 is 2.9 nM.
The same measure, in the same setting: for `N[C@H](C(=O)Nc1cccc(F)c1CCC1CNC2CCCS(=O)(=O)N1C2)[C@@H](c1ccc(F)cc1)c1cccc(C(F)(F)F)c1` (stereo partly drawn) [Example 2, (βS)—N-{2-[2-(2,2-Dioxido-2-thia-1,7-diazabicyclo[4.3.1]dec-9-yl)ethyl]-3-fluorophenyl}-β-(4-fluorophenyl)-3-(trifluoromethyl)-L-phenylalaninamide] the value was 6.7 nM; for `COC(=O)N[C@H](C(=O)Nc1cccc(F)c1CCC1CNC2CCCS(=O)(=O)N1C2)[C@@H](c1ccc(Cl)cc1)C(C)C` (stereo partly drawn) [Example 3, Methyl [(1S,2R)-2-(4-chlorophenyl)-1-({2-[2-(2,2-dioxido-2-thia-1,7-diazabicyclo[4.3.1]dec-9-yl)ethyl]-3-fluorophenyl}carbamoyl)-3-methylbutyl]carbamate], 14 nM; for `COC(=O)N[C@H](C(=O)Nc1cccc(F)c1CCC1CNC2CCCS(=O)(=O)N1C2)[C@@H](c1ccc(Cl)cc1)C1CC(F)(F)C1` (stereo partly drawn) [Example 4, Methyl [(1S,2R)-2-(4-chlorophenyl)-2-(3,3-difluorocyclobutyl)-1-({2-[2-(2,2-dioxido-2-thia-1,7-diazabicyclo[4.3.1]dec-9-yl)ethyl]-3-fluorophenyl}carbamoyl)ethyl]carbamate], 13 nM.
The same measure, in the same setting: the value for `COC(=O)N[C@H](C(=O)Nc1cccc(F)c1CCC1CNC2CCCS(=O)(=O)N1C2)[C@@H](c1ccc(Cl)cc1)C1CCC(F)(F)CC1` (stereo partly drawn) [Example 5, Methyl [(1S,2R)-2-(4-chlorophenyl)-2-(4,4-difluorocyclohexyl)-1-({2-[2-(2,2-dioxido-2-thia-1,7-diazabicyclo[4.3.1]dec-9-yl)ethyl]-3-fluorophenyl}carbamoyl)ethyl]carbamate] was 9.4 nM; that for `CCO[C@H]1CC[C@H]([C@H](c2ccc(Cl)cc2)[C@H](N)C(=O)Nc2cccc(F)c2CC[C@H]2CN[C@@H]3CCCS(=O)(=O)N2C3)CC1` [Example 6, (2S,3R)-2-amino-3-(4-chlorophenyl)-N-(2-(2-((6R,9S)-2,2-dioxido-2-thia-1,7-diazabicyclo[4.3.1]decan-9-yl)ethyl)-3-fluorophenyl)-3-((1r,4R)-4-ethoxycyclohexyl)propanamide] was 6.2 nM.
For `CO[C@H]1CC[C@H]([C@H](c2ccc(Cl)cc2)[C@H](N)C(=O)Nc2cccc(F)c2CC[C@H]2CN[C@@H]3CCCS(=O)(=O)N2C3)CC1` [Example 7, (βR)-4-Chloro-N-(2-{2-[(6R,9S)-2,2-dioxido-2-thia-1,7-diazabicyclo[4.3.1]dec-9-yl]ethyl}-3-fluorophenyl)-β-[(1r,4R)-4-methoxycyclohexyl]-L-phenylalaninamide], the EC50 is 3.1 nM.
Same read-out and setting: for `COC(=O)N[C@H](C(=O)Nc1cccc(F)c1CC[C@H]1CN[C@@H]2CCCS(=O)(=O)N1C2)[C@@H](c1ccc(Cl)cc1)[C@H]1CCO[C@@H](CC(F)(F)F)C1` [Example 8, Methyl ((1R,2S)-1-(4-chlorophenyl)-3-((2-(2-((6R,9S)-2,2-dioxido-2-thia-1,7-diazabicyclo[4.3.1]decan-9-yl)ethyl)-3-fluorophenyl)amino)-3-oxo-1-((2R,4S)-2-(2,2,2-trifluoroethyl)tetrahydro-2H-pyran-4-yl)propan-2-yl)carbamate] the value was 8.7 nM; for `COC(=O)N[C@H](C(=O)Nc1cccc(F)c1CCC1CNC2CCCS(=O)(=O)N1C2)[C@H](CCC1CCOCC1)c1ccc(Cl)c(F)c1` (stereo partly drawn) [Example 9, Methyl [(1S,2R)-2-(4-chloro-3-fluorophenyl)-1-({2-[2-(2,2-dioxido-2-thia-1,7-diazabicyclo[4.3.1]dec-9-yl)ethyl]-3-fluorophenyl}carbamoyl)-4-(tetrahydro-2H-pyran-4-yl)butyl]carbamate], 7.1 nM; for `CC1(C)C[C@@H]([C@H](c2ccc(Cl)cc2)[C@H](N)C(=O)Nc2cccc(F)c2CC[C@H]2CN[C@@H]3CCCS(=O)(=O)N2C3)CCO1` [Example 10, (2S,3R)-2-amino-3-(4-chlorophenyl)-3-((S)-2,2-dimethyltetrahydro-2H-pyran-4-yl)-N-(2-(2-((6R,9S)-2,2-dioxido-2-thia-1,7-diazabicyclo[4.3.1]decan-9-yl)ethyl)-3-fluorophenyl)propanamide], 6.7 nM.
As for `CC(C)Oc1ccc([C@H](c2ccc(Cl)cc2)[C@H](N)C(=O)Nc2cccc(F)c2CCC2CNC3CCCS(=O)(=O)N2C3)cn1` (stereo partly drawn) [Example 11, (βS)-4-Chloro-N-{2-[2-(2,2-dioxido-2-thia-1,7-diazabicyclo[4.3.1]dec-9-yl)ethyl]-3-fluorophenyl}-β-[6-(1-methylethoxy)pyridin-3-yl]-L-phenylalaninamide], the EC50 is 4 nM.
Consider `CC(F)(F)c1ccc([C@H](c2ccc(Cl)cc2)[C@H](N)C(=O)Nc2cccc(F)c2CC[C@H]2CN[C@@H]3CCCS(=O)(=O)N2C3)cn1` [Example 12, (2S,3S)-2-amino-3-(4-chlorophenyl)-3-(6-(1,1-difluoroethyl)pyridin-3-yl)-N-(2-(2-((6R,9S)-2,2-dioxido-2-thia-1,7-diazabicyclo[4.3.1]decan-9-yl)ethyl)-3-fluorophenyl)propanamide], for which the EC50 is 5.9 nM.
Still for that read-out and setting: for `COC(=O)N[C@H](C(=O)Nc1cccc(F)c1CC[C@H]1CN[C@@H]2CCCS(=O)(=O)N1C2)[C@]1(c2ccc(Cl)cc2)CC[C@@H](OC)CC1` [Example 13, Methyl {(1S)-1-[trans-1-(4-chlorophenyl)-4-methoxycyclohexyl]-2-[(2-{2-[(6R,9S)-2,2-dioxido-2-thia-1,7-diazabicyclo[4.3.1]dec-9-yl]ethyl}-3-fluorophenyl)amino]-2-oxoethyl}carbamate] the value was 7.6 nM; for `COC(=O)N1CCC(c2ccc(Cl)cc2)([C@H](N)C(=O)Nc2cccc(F)c2CC[C@H]2CN[C@@H]3CCCS(=O)(=O)N2C3)CC1` [Example 14, Methyl 4-{(1S)-1-amino-2-[(2-{2-[(6R,9S)-2,2-dioxido-2-thia-1,7-diazabicyclo[4.3.1]dec-9-yl]ethyl}-3-fluorophenyl)amino]-2-oxoethyl}-4-(4-chlorophenyl)piperidine-1-carboxylate], 14 nM.

Still in this assay, the particulars now being: inflection point (IP) of viral growth inhibition; MT4-GFP cells infected with HIV-1 H9IIIB; 50% normal human serum; mean of at least two independent experiments; read-out: Cell Based IP (50% NHS).
For the compound `COC(=O)N[C@H](C(=O)Nc1cncc(F)c1CC[C@H]1CN[C@@H]2CCCS(=O)(=O)N1C2)C1(c2ccc(Cl)cc2)CCC(C(F)(F)F)CC1` (relative stereo) [Example 270, methyl {(1S)-1-[cis-1-(4-chlorophenyl)-4-(trifluoromethyl)cyclohexyl]-2-[(4-{2-[(6R,9S)-2,2-dioxido-2-thia-1,7-diazabicyclo[4.3.1]dec-9-yl]ethyl}-5-fluoropyridin-3-yl)amino]-2-oxoethyl}carbamate], the EC50 is reported as 20 nM.
